From patent publication US9757424B2, “Compositions and methods of treating gliomas” (BioMed Valley Discoveries, Inc., priority 2011, dated 2017)
Where “and” joins values, the source holds several entries; their conditions need not be identical. Equal entries are not always repeated. Where two headings read alike, the source gives them in different places.

What was measured:
[1] = test system: U87MG tumor fragments; test: animal or person; conditions: for Regression CR (complete regression) / Regression PR (partial regression): number of animals
Experimental: HRLN female nu/nu mice were seeded with 1 mm^3 U87MG tumor fragments subcutaneously in the flank. Final caliper and body weight measurements were taken on the last day of the study.
All animals were assessed periodically for body weight, as well as tumor burden, using standard protocols with mechanical calipers. […] Dosing was stopped for any group with two measurements of mean body weight loss of greater than 20%. The group was not euthanized, and recovery was allowed. Within a group with greater than 20% weight loss, individuals reaching the individual body weight loss endpoint were euthanized. If the group body weight loss was recovered, dosing may resume. […] Dosing was then resumed with the candidate agent at half the original dose. Animals were monitored as a group. The endpoint of the experiment was a mean tumor weight in control group (or group 1) of 2000 mm^3 or 60 days, whichever comes first. When the endpoint was reached, all the animals were euthanized.

[2] = test system: U87MG human glioblastoma xenografts
Experimental: An untreated group served as the control group for efficacy analysis. Dosing was initiated on Day 1, except where indicated otherwise, and tumors were measured twice each week until the study was ended on Day 46. Animals were monitored individually and each mouse was euthanized for endpoint when its tumor attained a volume of 2000 mm^3 (about 2 grams) or on the final day (Day 46), whichever came first.
Treatment response was determined from an analysis of percent tumor growth delay (% TGD), defined as the percent increase in the median time to endpoint (TTE) in treated versus control mice; by logrank significance of differences in survival among treatment groups; and by regression responses. Plots of group mean tumor growth were also considered. Treatment tolerability was assessed by body weight measurements and frequent observation for clinical symptoms of treatment-related side effects.
Xenografts were initiated with U87MG human glioblastomas maintained at Piedmont by serial subcutaneous transplantation in athymic nude mice. Each test mouse received a U87MG tumor fragment (1 mm^3) implanted subcutaneously in the right flank, and the growth of tumors was monitored as the average size approached the target range of 80 to 120 mm^3. […] Tumor volume was calculated using the formula: Tumor Volume (mm^3)=w^2×l where w=width and l=length in mm of a U87MG tumor. Tumor weight may be estimated with the assumption that 1 mg is equivalent to 1 mm^3 of tumor volume.
On Day 1 of the study, mice were sorted into six groups each consisting of ten mice, and dosing was initiated according to the treatment plan summarized in Table 1. Group 1 mice were not treated and served as controls for calculation of % TGD. […] All doses were scaled to the body weights of the individual animals.
Tumors were measured twice each week using calipers. Animals were monitored individually, and each mouse was euthanized when its tumor reached the endpoint size of 2000 mm^3 or at the conclusion of the study (Day 46), whichever came first.
Animals were monitored for regression responses. Treatment may cause partial regression (PR) or complete regression (CR) of the tumor in an animal. In a PR response, the tumor volume is 50% or less of its Day 1 volume for three consecutive measurements during the course of the study, and equal to or greater than 13.5 mm^3 for one or more of these three measurements. In a CR response, the tumor volume is less than 13.5 mm^3 for three consecutive measurements during the course of the study. An animal with a CR response at the termination of a study is additionally classified as a tumor-free survivor (TFS).
Animals were weighed daily on Days 1-5, and then twice weekly until the study was completed. […] Acceptable toxicity was defined as a group mean body-weight loss of less than 20% during the study and not more than one treatment-related (TR) death among ten treated animals. Any dosing regimen that results in greater toxicity is considered above the maximum tolerated dose (MTD). […] A death is classified as NTR if there is no evidence that death was related to treatment side effects. NTR deaths may be further characterized based on cause of death. A death may be classified as NTRa if it resulted from an accident or human error. […] A death may be classified as NTRu if the cause of death is unknown and there is no available evidence of death related to treatment side effects, metastasis, accident or human error, although death due to treatment side effects cannot be excluded.

[3] = test system: U87MG human glioblastoma xenografts; test: U87MG human glioblastoma xenograft, tumor growth delay, 49-day study (Example 2);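 also: female athymic nude mice with subcutaneous tumors, groups of ten, tumors measured twice weekly, endpoint at 2000 mm^3 tumor volume or Day 49, treated compared with control mice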
Experimental: The experiment consisted of groups (n=10) of female athymic nude mice bearing subcutaneous U87MG xenografts (75-144 mm^3) on Day 1. Candesartan was evaluated as monotherapies at dosages of 1, 5, 10 and 50 mg/kg administered intraperitoneally (i.p.) on a once daily for twenty-one days (qd×21) schedule. […] Dosing was initiated on Day 1, and tumors were measured twice each week until the study was ended on Day 49. Animals were monitored individually and each mouse was euthanized for endpoint when its tumor attained a volume of 2000 mm^3 (about 2 grams) or on the final day (Day 49), whichever came first. Tumor samples were collected at endpoint, and histopathology analyses were performed.
The time to endpoint (TTE) was calculated for each mouse. Treatment outcome was determined from percent tumor growth delay (% TGD), defined as the percent increase in median TTE of treated versus control mice, with differences in the TTE values between groups deemed statistically significant at P 0.05 using logrank survival analysis. Animals were also monitored for partial regression (PR) and complete regression (CR) responses. Treatment tolerability was assessed by body weight measurements and frequent observation for signs of treatment-related (TR) toxicity.
Treatment response was determined from an analysis of percent tumor growth delay (% TGD), defined as the percent increase in the median time to endpoint (TTE) in treated versus control mice; by logrank significance of differences in survival among treatment groups; and by regression responses. Plots of group mean tumor growth were also considered. Treatment tolerability was assessed by body weight measurements and frequent observation for clinical symptoms of treatment-related (TR) side effects.
Xenografts were initiated with U87MG human glioblastomas (Piedmont Research Center, Morrisville, N.C.) by serial subcutaneous transplantation in athymic nude mice. Each test mouse received a U87MG tumor fragment (1 mm^3) implanted subcutaneously in the right flank, and the growth of tumors was monitored as the average size approached the target range of 80 to 120 mm^3. […] Tumor volume was calculated using the formula: Tumor Volume (mm^3)=w^2×l/2 where w=width and l=length in mm of a U87MG tumor. Tumor weight may be estimated with the assumption that 1 mg is equivalent to 1 mm^3 of tumor volume. Therapeutic Agents
Doses of valsartan and candesartan were each formulated weekly, and were stored at 4° C. Valsartan dosing solutions were formulated at concentrations of 15 and 3 mg/mL to yield the desired 150 and 30 mg/kg dosages, respectively, in a dosing volume of 0.2 mL per 20 grams body weight (10 mL/kg). The required amount of valsartan powder for the 15 mg/mL solution was suspended in sterile saline, then dissolved with 0.1 N NaOH and pH adjusted to 7.4 with 0.1 N HCl. The 3 mg/mL valsartan dosing solution was prepared by diluting an aliquot of the 15 mg/mL valsartan solution with sterile saline. Candesartan doses were formulated in 0.5% carboxymethyl cellulose (CMC) in deionized water at concentrations of 5, 1, 0.5 and 0.1 mg/mL to yield the desired 50, 10, 5 and 1 mg/kg dosages, respectively, in a dosing volume of 10 mL/kg.
Each test agent was administered intraperitoneally (i.p.) once daily for twenty-one days (qd×21), unless otherwise indicated.
Group 1 was not treated and served as the control group for calculation of % TGD. […] Groups 4-7 received candesartan at 50, 10, 5 or 1 mg/kg, respectively. […] All doses were scaled to the body weights of the individual animals.
Tumors were measured twice each week using calipers.

[4] = test system: U87MG human glioblastomas; test: U87MG human glioblastoma xenograft in nude mice, tumor growth inhibition Day 22 (Example 1)
Experimental: Each test mouse received a U87MG tumor fragment of the size 1 mm^3. […] Body weight and tumor size were monitored.
It was administered at either 5 mg/kg orally (p.o.) per day or 100 mg/kg (p.o.) per day, once daily from day 1 to day 5 of the treatment (qd×5). Candesartan in 0.5% carboxymethyl cellulose was dissolved in deionized water and administered intraperitoneally (i.p.) at the dose of 10 mg/kg once daily from day 1 to day 21 (qd×21).

[5] = test system: U87MG glioma human tumor cell line
Experimental: Compounds are assessed for combination efficacy in a tumor fragment xenograft model generated by serial passage of a commonly available U87MG glioma human tumor cell line. Experimental cohorts are derived by seeding 8-12 week old, female HRLN nu/nu mice with 1 mm^3 sub-fragments of tumors maintained through serial passage in living xenografts. […] Experimental compounds are dosed once daily, in a dose volume less than or equal to 10 mL/kg, in varying vehicle resuspensions and varied routes (see table 7 below). All animals are assessed periodically for body weight, as well as tumor burden using standard protocols with mechanical calipers.
Experimental compounds are scored for efficacy using various data analyses, including manual growth curve inspection, comparison of mean time-to-tumor burden (analogous to C/T analysis), and time-to-event survival analysis by tumor burden.

[6] = Group 1: temozolomide 5 po qd x 5 alone
[7] = Group 1: temozolomide 5 po qd x 5 alone, n=10
[8] = Group 19: temozolomide 100 po qd x 5 alone
[9] = Group 19: temozolomide 100 po qd x 5 alone, n=8
[10] = Group 2: temozolomide 5 mg/kg po qd x 5
[11] = Group 6: temozolomide 100 mg/kg po qd x 5
[12] = Group 2: temozolomide 100 mg/kg po qd x 5
[13] = Group 3: temozolomide 5 mg/kg po qd x 5
[14] = temozolomide 100 mg/kg p.o. qdx5
[15] = Day 1, temozolomide 100 mg/kg p.o. qdx5
[16] = Day 4, temozolomide 100 mg/kg p.o. qdx5
[17] = Day 7, temozolomide 100 mg/kg p.o. qdx5
[18] = Day 11, temozolomide 100 mg/kg p.o. qdx5
[19] = Day 14, temozolomide 100 mg/kg p.o. qdx5
[20] = Day 18, temozolomide 100 mg/kg p.o. qdx5
[21] = Day 21, temozolomide 100 mg/kg p.o. qdx5
[22] = Day 25, temozolomide 100 mg/kg p.o. qdx5
[23] = Day 28, temozolomide 100 mg/kg p.o. qdx5
[24] = temozolomide 100 mg/kg po qd x 5

Cn1nnc2c(C(N)=O)ncn2c1=O [Temozolomide, temozolomide]
Deaths NTR (non-treatment-related death) [1, 6]: 0
Deaths TR (treatment-related death) [1, 6]: 0
MTV(n) Day 29 (median tumor volume) [1, 6]: 410 (10) mm^3
Regression CR (complete regression) [1, 7]: 1
Regression PR (partial regression) [1, 7]: 0
Deaths NTR (non-treatment-related death) [1, 8]: 0
Deaths TR (treatment-related death) [1, 8]: 0
Mean BW Nadir (lowest group mean body weight, as % change from Day 1) [1, 8]: −2.5%
MTV(n) Day 29 (median tumor volume) [1, 8]: 10 (8) mm^3
Regression CR (complete regression) [1, 9]: 7
Regression PR (partial regression) [1, 9]: 1
inhibition in vivo at 100 mg/kg ([1]; Mus musculus, U-87 MG, po, 864 h, read-out: % TGI (percent tumor growth inhibition, compared to Group 1)): 98%
Mean BW Nadir, day of nadir ([1]; mouse, in vivo, po): Day 8
Median TTE [2]: 42.0 days
% TGD (vs Group 1) [2, 10]: 152%
Deaths NTR [2, 10]: 0
Deaths TR [2, 10]: 0
Median TTE [2, 10]: 28.7 days
Regressions CR [2, 10]: 0
Regressions PR [2, 10]: 0
Regressions TFS [2, 10]: 0
T − C (TGD vs Group 1) [2, 10]: 17.3 days
% TGD (vs Group 1) [2, 11]: 268%
Deaths NTR [2, 11]: 0
Deaths TR [2, 11]: 0
Median TTE [2, 11]: 42 days
Regressions CR [2, 11]: 1
Regressions PR [2, 11]: 0
Regressions TFS [2, 11]: 1
T − C (TGD vs Group 1) [2, 11]: 30.6 days
MTV (n) Day 46 (median tumor volume) ([2]; Group 6: temozolomide 100 mg/kg po qd x 5, excludes animals attaining tumor volume endpoint): 0 (1) mm3
% TGD (vs Group 1) [3, 12]: 276%
Deaths NTR [3, 12]: 0
Deaths TR [3, 12]: 0
MTV (n) Day 49 [3, 12]: 0 (2) mm^3
Median TTE [3, 12]: 43.6 days
Regressions CR [3, 12]: 2
Regressions PR [3, 12]: 3
Regressions TFS [3, 12]: 2
T − C (TGD vs Group 1) [3, 12]: 32.0 days
% TGD (vs Group 1) [3, 13]: 93%
Deaths NTR [3, 13]: 0
Deaths TR [3, 13]: 0
Median TTE [3, 13]: 22.4 days
Regressions CR [3, 13]: 0
Regressions PR [3, 13]: 0
Regressions TFS [3, 13]: 0
T − C (TGD vs Group 1) [3, 13]: 10.8 days
MTV (n) Day 22 (mean tumor volume) ([4]; temozolomide 5 mg/kg p.o. qdx5): 825 mm^3
No. of CR ([4]; temozolomide 5 mg/kg p.o. qdx5): 0
No. of NTR ([4]; temozolomide 5 mg/kg p.o. qdx5): 0
No. of PR ([4]; temozolomide 5 mg/kg p.o. qdx5): 0
No. of TR ([4]; temozolomide 5 mg/kg p.o. qdx5): 0
MTV (n) Day 22 (mean tumor volume) ([4]; temozolomide 5 mg/kg p.o. qdx5, listed as temozolomide): 825.1 ± 95.03 N = 115 mm^3
No. of CR [4, 14]: 0
No. of NTR [4, 14]: 0
No. of PR [4, 14]: 1
No. of TR [4, 14]: 0
% TGI ([4]; temozolomide 100 mg/kg p.o. qdx5, Day 22, compared to temozolomide at 5 mg/kg): 88%
TV, group Mean ([5]; Day 1, temozolomide 5 mg/kg po qd x 5): 111.2 mm^3
TV, group Mean [5, 15]: 110.7 mm^3
TV, individual mice [5, 15]: 88 mm^3 and 108 mm^3
TV, group Mean ([5]; Day 4, temozolomide 5 mg/kg po qd x 5): 222.2 mm^3
TV, group Mean [5, 16]: 182.8 mm^3
TV, individual mice [5, 16]: 144 mm^3 and 172 mm^3
TV, group Mean ([5]; Day 7, temozolomide 5 mg/kg po qd x 5): 439.1 mm^3
TV, group Mean [5, 17]: 185 mm^3
TV, individual mice [5, 17]: 144 mm^3 and 196 mm^3
TV, group Mean ([5]; Day 11, temozolomide 5 mg/kg po qd x 5): 599.1 mm^3
TV, group Mean [5, 18]: 215.2 mm^3
TV, individual mice [5, 18]: 100 mm^3 and 256 mm^3
TV, group Mean ([5]; Day 14, temozolomide 5 mg/kg po qd x 5): 720.4 mm^3
TV, group Mean [5, 19]: 221.5 mm^3
TV, individual mice [5, 19]: 144 mm^3
TV, group Mean ([5]; Day 18, temozolomide 5 mg/kg po qd x 5): 852.1 mm^3
TV, group Mean [5, 20]: 140.6 mm^3
TV, individual mice [5, 20]: 88 mm^3
TV, group Mean ([5]; Day 21, temozolomide 5 mg/kg po qd x 5): 1058.6 mm^3
TV, group Mean [5, 21]: 99.1 mm^3
TV, individual mice [5, 21]: 75 mm^3
TV, group Mean ([5]; Day 25, temozolomide 5 mg/kg po qd x 5): 1795.6 mm^3
TV, group Mean [5, 22]: 98.4 mm^3
TV, individual mice [5, 22]: 88 mm^3
TV, group Mean ([5]; Day 28, temozolomide 5 mg/kg po qd x 5): 1890.8 mm^3
TV, group Mean [5, 23]: 95 mm^3
TV, individual mice [5, 23]: 144 mm^3
Deaths NTR ([5]; temozolomide 5 mg/kg po qd x 5): 0
Deaths TR ([5]; temozolomide 5 mg/kg po qd x 5): 0
MTV (n) Day 25 (median tumor volume) ([5]; temozolomide 5 mg/kg po qd x 5): 1180 mm^3
Regressions CR ([5]; temozolomide 5 mg/kg po qd x 5): 0
Regressions PR ([5]; temozolomide 5 mg/kg po qd x 5): 0
Deaths NTR [5, 24]: 0
Deaths TR [5, 24]: 0
MTV (n) Day 25 (median tumor volume) [5, 24]: 88 mm^3
Regressions CR [5, 24]: 0
Regressions PR [5, 24]: 0
% TGI ([5]; temozolomide 100 mg/kg po qd x 5, Day 25, compared to temozolomide 5 mg/kg group): 94%
